# According to US20040058948A1, “Mappicine analogs, methods of inhibiting retroviral reverse transcriptase and methods of treating retroviruses” (priority 2002, published 2004):
# Key:
# [1] = target: T1, RNA-dependent DNA polymerase activity of HIV reverse transcriptase (Human immunodeficiency virus type 1 group M subtype B, UniProt P04585); experiment: RNA-dependent DNA polymerase activity assay of HIV reverse transcriptase; assay type: biochemical, HIV-1; conditions: 10 μM inhibitor concentration, activity with analog / without analog x 100
# T1 construct: made in house
# Protocol: In separate, representative assays, mappicine analogs were tested for their ability to inhibit the RNA-dependent DNA polymerase activity of HIV reverse transcriptase and for their ability to inhibit the RNase H activity of HIV reverse transcriptase. The assay for RNA-dependent DNA polymerase activity is discussed in Borkow, G. et al., “Inhibition of the Ribonuclease H and DNA Polymerase Activities of HIV-1 Reverse Transcriptase by N-(4-tert-Butylbenzoyl)-2-hydroxy-1-naphthaldehyde Hydrazone,” Biochemistry 1997, 36, 3179-3185, a copy of which is attached hereto, and the disclosure of which is incorporated herein by reference. Assays were carried out in the absence and in the presence of mappicine analogs (10 μM final concentration). The results are reported as % residual activity, which is the RNA-dependent DNA polymerase activity of the enzyme in the presence of the mappicine analog divided by the RNA-dependent activity of the enzyme in the absence of the mappicine analog, multiplied by 100.
# [2] = target: RNase H activity of HIV reverse transcriptase (Human immunodeficiency virus type 1 group M subtype B, UniProt P04585); experiment: Fluorescence (FRET)-based RNase H activity assay of HIV reverse transcriptase; assay type: biochemical, HIV-1; parameters: final concentration of 2.5 nM of the p51/p66 RT heterodimer in the assay; made in house; conditions: 10 μM inhibitor concentration, activity with analog / without analog x 100
# Protocol: Recently, a fluorescence-based assay to perform preliminary screens in search of HIV RNase H inhibitors has been developed. The assay, which is carried out in 96-well microplates and is adaptable to robotics, is the first high-throughput screen for RNase H and is described in further detail in the Experimental section. HIV-1 RT and human RNase H were cloned, and thus comparative analysis of inhibitor action could be conducted simultaneously.
# The assay for RNase H activity of HIV reverse transcriptase was the fluorescence-based assay described in detail in the Experimental section and discussed in U.S. Provisional Patent Application Serial No. 60/318,359. Assays were carried out in the absence and in the presence of mappicine analogs (10 μM final concentration). The results are reported as % residual activity, which is the RNase H activity of the enzyme in the presence of the mappicine analog divided by the RNase H activity of the enzyme in the absence of the mappicine analog, multiplied by 100. Alternatively, the results are reported as % inhibition, which is calculated as the ratio of the RNase H activity of the enzyme in the presence of the mappicine analog to the enzyme activity in the absence of the mappicine analog, multiplied by 100, and then subtracting this number from 100.
# Assay for Ribonuclease H Activity Based on Fluorescence Resonance Energy Transfer (FRET)
# Preparation of the Fluorophore-RNA/Quencher-DNA Hybrid Duplex Substrate.
# The RNA/DNA hybrid duplex substrate for use in the assay comprises an RNA oligonucleotide of sequence 5′-GAU CUG AGC CUG GGA GCU-3′, modified at the 3′-end with Aminolink-2 and derivatized with fluorescein isothiocyanate, to provide a modified RNA oligonucleotide of the sequence 5′-GAU CUG AGC CUG GGA GCU-fluorescein-3′, annealed to a complementary DNA oligonucleotide of the sequence 5′-AGC TCC CAG GCT CAG ATC-3′ modified at the 5′-end with Aminolink-2 and derivatized with the FRET acceptor DABCYL succinimidyl ester, to provide a modified DNA oligonucleotide of the sequence 5′-DABCYL-AGC TCC CAG GCT CAG ATC-3′.
# To prepare the 3′-fluorescein-RNA/5′-DABCYL-DNA hybrid duplex substrate, a known amount of 3′-fluorescein-RNA was dissolved in 20 mM Tris buffer (pH 8.0, 37° C.) to provide a final concentration of 5 μM. Two equivalents of the 5′-DABCYL-DNA oligonucleotide were added, and the mixture was heated to 90° C. for 5 min and cooled slowly to room temperature to allow duplex formation. The positioning of the fluorescein donor at the 3′-end of the RNA oligonucleotide and the DABCYL acceptor at the 5′-end of the DNA oligonucleotide provides a very close proximity of the donor and acceptor that results in a very intense quenching of the fluorescein emission in the intact RNA/DNA hybrid duplex substrate due to the spectral overlap of the fluorescence emission of fluorescein with the absorption spectrum of DABCYL. In addition, DABCYL is non-fluorescent, and thus cannot contribute any light emission. Both of these factors result in a very low background and provide a high signal-to-noise in the assay measurements. The ratio of the donor fluorescence in the absence and in the presence of its quencher is approximately fifteen-fold.
# Microplate Assay Protocol for the Measurement of RNase H Activity Using the RNA/DNA Hybrid Duplex Substrate.
# Reaction assay mixtures contained 5 μl of a stock solution of 2.5 μM RNA/DNA hybrid duplex substrate added to 85 μl of assay buffer (50 mM Tris, pH 8.0, 37° C., containing 60 mM KCl and 2.5 mM MgCl2), prepared in the wells of a 96-well fluorescence microtiter plate, and warmed to 37° C. using the temperature control of the SpectraMax Gemini XS microplate spectrofluorometer (Molecular Devices). Reactions were started by the addition of 5 μl of a solution of recombinant HIV-1 reverse transcriptase (usually providing a final concentration of 2.5 nM of the p51/p66 RT heterodimer in the assay), and mixing using the automatic mixing function of the microplate spectrofluorometer. […]
SMILES,Residual activity (%) Polymerase [1],Residual activity (%) RNase H [2],remaining activity at 10 µM ([1]; read-out: Residual activity (%) Polymerase),remaining activity at 10 µM ([2]; read-out: Residual activity (%) RNase H)
CCCCCCc1c2c(nc3ccccc13)-c1cc(C(=O)C(C)(C)C)c(C)c(=O)n1C2 [8Aβκ],76%,96%,,
COc1ccc2nc3c(c([Si](C)(C)C)c2c1)Cn1c-3cc(C(O)CCC2CCCCC2)c(C)c1=O (centres unmarked) [5Dδ],57%,96%,,
"CCc1c2c(nc3ccc(O)cc13)-c1cc(C(O)CC)c(C)c(=O)n1C2 (centres unmarked) [AG 8M, 12-Ethyl-2-hydroxy-7-(1-hydroxypropyl)-8-methyl-11H-indolizino[1,2-b]quinolin-9-one]",,,69%,87%
Cc1c(C(=O)CCC2CCCCC2)cc2n(c1=O)Cc1c-2nc2ccc(F)cc2c1[Si](C)(C)C [5Bδκ],46%,78%,,
CCCCCCc1c2c(nc3ccccc13)-c1cc(C(=O)CCC3CCCCC3)c(C)c(=O)n1C2 [8Aδκ],63%,97%,,
Cc1c(C(=O)C(C)(C)C)cc2n(c1=O)Cc1c-2nc2ccccc2c1[Si](C)(C)C(C)(C)C [4Aβκ],79%,70%,,
Cc1ccc2nc3c(c(-c4ccccc4)c2c1)Cn1c-3cc(C(=O)C(C)(C)C)c(C)c1=O [3Cβκ],63%,96%,,
CCC(=O)c1cc2n(c(=O)c1C)Cc1c-2nc2ccc(OC)cc2c1[Si](C)(C)C(C)(C)C [4Dακ],80%,77%,,
Cc1c(C(O)Cc2ccccc2)cc2n(c1=O)Cc1c-2nc2ccc(F)cc2c1[Si](C)(C)C(C)(C)C (centres unmarked) [4Bε],61%,89%,,
COc1ccc2nc3c(c([Si](C)(C)C(C)(C)C)c2c1)Cn1c-3cc(C(O)Cc2ccccc2)c(C)c1=O (racemic) [4Dε],49%,76%,,
Cc1c(C(O)C(C)(C)C)cc2n(c1=O)Cc1c-2nc2ccc(F)cc2c1-c1ccccc1 (racemic) [3Bβ],78%,75%,,
Cc1ccc2nc3c(c([Si](C)(C)C(C)(C)C)c2c1)Cn1c-3cc(C(O)CCC2CCCCC2)c(C)c1=O (racemic) [4Cδ],61%,109%,,
Cc1ccc2nc3c(c(-c4ccccc4)c2c1)Cn1c-3cc(C(=O)CCC2CCCCC2)c(C)c1=O [3Cδκ],65%,93%,,
CCCCCCc1c2c(nc3ccc(C)cc13)-c1cc(C(O)C(C)(C)C)c(C)c(=O)n1C2 (racemic) [8Cβ],111%,93%,,
CCCCCCc1c2c(nc3ccc(F)cc13)-c1cc(C(O)CC)c(C)c(=O)n1C2 (centres unmarked) [8Bα],57%,80%,,
CCCCCCc1c2c(nc3ccccc13)-c1cc(C(O)Cc3ccccc3)c(C)c(=O)n1C2 (racemic) [8Aε],58%,71%,,
CCCCCCc1c2c(nc3ccccc13)-c1cc(C(O)CC)c(C)c(=O)n1C2 (racemic) [8Aα],42%,83%,,
COc1ccc2nc3c(c([Si](C)(C)C(C)(C)C)c2c1)Cn1c-3cc(C(O)C(C)(C)C)c(C)c1=O (racemic) [4Dβ],47%,91%,,
CCCCCCc1c2c(nc3ccccc13)-c1cc(C(=O)Cc3ccccc3)c(C)c(=O)n1C2 [8Aεκ],59%,92%,,
CCCCCCc1c2c(nc3ccc(F)cc13)-c1cc(C(O)C(C)(C)C)c(C)c(=O)n1C2 (racemic) [8Bβ],50%,97%,,
CCC(O)c1cc2n(c(=O)c1C)Cc1c-2nc2ccc(F)cc2c1[Si](C)(C)C (centres unmarked) [5Bα],82%,105%,,
COc1ccc2nc3c(c([Si](C)(C)C)c2c1)Cn1c-3cc(C(O)Cc2ccccc2)c(C)c1=O (racemic) [5Dε],48%,70%,,
